Experiments:
Assay in all cases: whole plant or invertebrate
Format in all cases: in vivo
[1] = test system: orchid thrips (Dichromothrips corbetti); details: adult thrips, 72 hours after treatment, read-out: mortality in comparison with untreated controls
Protocol: Dichromothrips corbetti adults used for bioassay were obtained from a colony maintained continuously under laboratory conditions. For testing purposes, the test compound is diluted in a 1:1 mixture of acetone:water (vol:vol), plus Kinetic® HV at a rate of 0.01% v/v.
Thrips potency of each compound was evaluated by using a floral-immersion technique. All petals of individual, intact orchid flowers were dipped into treatment solution and allowed to dry in Petri dishes. Treated petals were placed into individual re-sealable plastic along with about 20 adult thrips. All test arenas were held under continuous light and a temperature of about 28° C. for duration of the assay. After 3 days, the numbers of live thrips were counted on each petal. The percent mortality was recorded 72 hours after treatment.

[2] = test system: southern armyworm (Spodoptera eridania); details: in Phaseolus lunatus, 96 h, 2nd instar larvae, 4 days after treatment, read-out: mortality in comparison with untreated controls
Protocol: The 10,000 ppm solution was serially diluted in 100% cyclohexanone to make interim solutions. These served as stock solutions for which final dilutions were made by the Tecan in 50% acetone:50% water (v/v) into 10 or 20 ml glass vials. A nonionic surfactant (Kinetic®) was included in the solution at a volume of 0.01% (v/v). The vials were then inserted into an automated electrostatic sprayer equipped with an atomizing nozzle for application to plants/insects.
Lima bean plants (variety Sieva) were grown 2 plants to a pot and selected for treatment at the 1st true leaf stage. Test solutions were sprayed onto the foliage by an automated electrostatic plant sprayer equipped with an atomizing spray nozzle. The plants were dried in the sprayer fume hood and then removed from the sprayer. Each pot was placed into perforated plastic bags with a zip closure. About 10 to 11 armyworm larvae were placed into the bag and the bags zipped closed. Test plants were maintained in a growth room at about 25° C. and about 20-40% relative humidity for 4 days, avoiding direct exposure to fluorescent light (24 hour photoperiod) to prevent trapping of heat inside the bags. Mortality and reduced feeding were assessed 4 days after treatment, compared to untreated control plants.

[3] = test system: boll weevil (Anthonomus grandis); details: 120 h, egg and larval mortality after 5 days, read-out: mortality in comparison with untreated controls
[4] = test system: diamond back moth (Plutella xylostella); details: in Brassica oleracea, foliar, 3rd instar larvae, 72 hours after treatment, read-out: mortality in comparison with untreated controls
Protocol: Surfactant (Kinetic® HV) is added at a rate of 0.01% (v/v). The test solution is prepared at the day of use.
Leaves of cabbage were dipped in test solution and air-dried. Treated leaves were placed in petri dishes lined with moist filter paper and inoculated with ten 3rd instar larvae. Mortality was recorded 72 hours after treatment. Feeding damages were also recorded using a scale of 0-100%.

[5] = test system: yellow fever mosquito (Aedes aegypti); details: 48 h, larval mortality after 2 days, read-out: mortality in comparison with untreated controls
Protocol: Example B1: Action on Yellow Fever Mosquito (Aedes aegypti)
For evaluating control of yellow fever mosquito (Aedes aegypti) the test unit consisted of 96-well-microtiter plates containing 200 μl of tap water per well and 5-15 freshly hatched A. aegypti larvae.
The active compounds or mixtures were formulated using a solution containing 75% (v/v) water and 25% (v/v) DMSO. Different concentrations of formulated compounds or mixtures were sprayed onto the insect diet at 2.5 μl, using a custom built micro atomizer, at two replications. For experimental mixtures in these tests identical volumes of both mixing partners at the desired concentrations respectively, were mixed together.
After application, microtiter plates were incubated at 28±1° C., 80±5% RH for 2 days. Larval mortality was then visually assessed.

[6] = test system: tobacco budworm (Heliothis virescens); details: 120 h, egg and larval mortality after 5 days, read-out: mortality in comparison with untreated controls
Protocol: For evaluating control of tobacco budworm (Heliothis virescens) the test unit consisted of 96-well-microtiter plates containing an insect diet and 15-25 H. virescens eggs.
Different concentrations of formulated compounds were sprayed onto the insect diet at 10 μl, using a custom-built micro atomizer, at two replications.
After application, microtiter plates were incubated at about 28+1° C. and about 80+5% relative humidity for 5 days. Egg and larval mortality were then visually assessed.

Compound	mortality at 500 ppm [1] [%]	mortality at 300 ppm [2] [%]	mortality at 800 ppm [3] [%]	mortality at 500 ppm [4] [%]	mortality at 800 ppm [5] [%]	mortality at 800 ppm [6] [%]
CC(=O)OCS/C(=N\N=C\c1ccc(-c2nn(C)c(NC(=O)c3ccc(OC(F)(F)F)cc3)c2C#N)cc1)Nc1cc(C)ccc1C(C)C [Compound C-7, [(Z)—N′-[(E)-[4-[4-cyano-1-methyl-5-[[4-(trifluoromethoxy)benzoyl]amino]pyrazol-3-yl]phenyl]methyleneamino]-N-(2-isopropyl-5-methylphenyl)carbamimidoyl]sulfanylmethyl acetate]	≥ 75	≥ 75	≥ 75	≥ 75	≥ 50	≥ 75
Cc1ccc(C(C)C)c(N/C(=N/N=C/c2ccc(-c3nn(C)c(NC(=O)c4ccc(OC(F)(F)F)cc4)c3C#N)cc2)SCOC(=O)C(C)C)c1 [Compound C-8, [(Z)—N′-[(E)-[4-[4-cyano-1-methyl-5-[[4-(trifluoromethoxy)benzoyl]amino]pyrazol-3-yl]phenyl]methyleneamino]-N-(2-isopropyl-5-methylphenyl)carbamimidoyl]sulfanylmethyl 2-methylpropanoate]	≥ 75	≥ 75	≥ 75	≥ 75	≥ 50	≥ 75
